Test results taken from ChEMBL document CHEMBL3797049, “Development of a competitive binding assay for the Burkholderia cenocepacia lectin BC2L-A and structure activity relationship of natural and synthetic inhibitors” (Medchemcomm, 2016).
Active and inactive are the calls of the source. No cut-off for these calls is given here.

Biological target: T1, Lectin (Burkholderia cenocepacia (strain ATCC BAA-245 / DSM 16553 / LMG 16656/ NCTC 13227 / J2315 / CF5610) (Burkholderia cepacia (strain J2315))) (UniProt B4EH87)
T1 sequence (whole entry): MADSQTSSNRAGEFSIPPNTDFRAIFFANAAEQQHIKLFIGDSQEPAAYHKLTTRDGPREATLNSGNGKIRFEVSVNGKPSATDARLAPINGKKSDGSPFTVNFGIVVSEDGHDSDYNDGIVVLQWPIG
Test: Displacement of N-(fluorescein-5-yl)-N'-(alpha-D-mannopyranosyloxyethyl)-thiocarbamide from Burkholderia cenocepacia J2315 BC2L-A expressed in Escherichia coli BL21 (DE3) cells up to 666 uM incubated for 3 to 4 hrs by fluorescence polarization assay relative to control

Row | SMILES | inhibition
1 | C=CCO[C@H]1O[C@H](CO)[C@@H](O)[C@H](OC)[C@@H]1O | 56%
2 | CO[C@H]1O[C@H]([C@H](O)CNC(=O)/C=C/c2ccccc2)[C@@H](O)[C@H](O)[C@@H]1O | inactive
3 | OC[C@H]1OC(O)[C@@H](F)[C@@H](O)[C@@H]1O (stereo not given in full) | inactive
4 | C[C@@H]1OC[C@@H](F)[C@H](O)[C@@H]1O | inactive
5 | OC[C@H]1OC(O)[C@@H](O)[C@@H](F)[C@@H]1O (stereo not given in full) | inactive
6 | CO[C@H]1O[C@H]([C@H](O)CNC(=O)c2ccccc2)[C@@H](O)[C@H](O)[C@@H]1O | inactive
7 | C[C@@H]1O[C@H](C)[C@@H](O)[C@H](O)[C@@H]1O | inactive
8 | C=CCO[C@H]1O[C@H](CO)[C@@H](OC)[C@H](O)[C@@H]1O | inactive
9 | CO[C@@H]1O[C@@H](C)[C@@H](O)[C@@H](O)[C@@H]1O | inactive
10 | CO[C@H]1O[C@H](CBr)[C@@H](O)[C@H](O)[C@@H]1O | inactive
11 | CO[C@H]1O[C@H](CN)[C@@H](O)[C@H](O)[C@@H]1O | inactive
12 | C[C@@H]1OC[C@@H](O)[C@H](O)[C@@H]1O | inactive
13 | CO[C@H]1O[C@H](CI)[C@@H](O)[C@H](O)[C@@H]1O | inactive
14 | CO[C@H]1O[C@H](CCl)[C@@H](O)[C@H](O)[C@@H]1O | inactive
15 | CO[C@H]1O[C@@H](C)[C@@H](O)[C@@H](O)[C@@H]1O | inactive

Biological target: T2, Lectin (Burkholderia cenocepacia (strain ATCC BAA-245 / DSM 16553 / LMG 16656/ NCTC 13227 / J2315 / CF5610) (Burkholderia cepacia (strain J2315)), UniProt B4EH87)
T2 sequence (B4EH87 whole entry): T1 sequence (whole entry)
Test: Binding affinity to Burkholderia cenocepacia J2315 BC2L-A expressed in Escherichia coli BL21 (DE3) cells by isothermal titration calorimetry

Row | SMILES | Kd
16 | CO[C@H]1OC(C(O)CO)C(O)C(O)C1O (stereo not given in full) | 54 µM

Test system: not listed separately
Test: Displacement of N-(fluorescein-5-yl)-N'-(alpha-L-fucopyranosyl-O-ethyl)-thiocarbamide from Pseudomonas aeruginosa LecB expressed in Escherichia coli BL21 (DE3) cells up to 666 uM incubated for 6 hrs by fluorescence polarization assay

Row | SMILES | inhibition
17 | C=CCO[C@H]1O[C@H](CO)[C@@H](O)[C@H](OC)[C@@H]1O | inactive
18 | OC[C@H]1OC(O)[C@@H](F)[C@@H](O)[C@@H]1O (stereo not given in full) | inactive
19 | C[C@@H]1OC[C@@H](F)[C@H](O)[C@@H]1O | inactive
20 | OC[C@H]1OC(O)[C@@H](O)[C@@H](F)[C@@H]1O (stereo not given in full) | inactive
21 | C=CCO[C@H]1O[C@H](CO)[C@@H](OC)[C@H](O)[C@@H]1O | inactive

Biological target: T2, Lectin (Burkholderia cenocepacia (strain ATCC BAA-245 / DSM 16553 / LMG 16656/ NCTC 13227 / J2315 / CF5610) (Burkholderia cepacia (strain J2315)), UniProt B4EH87)
Test: Binding affinity to Burkholderia cenocepacia J2315 BC2L-A expressed in Escherichia coli BL21 (DE3) cells by microcalorimetry

Row | SMILES | Kd
22 | CO[C@H]1O[C@H](CO)[C@@H](O)[C@H](O)[C@@H]1O | 2.7 µM

Biological target: T2, Lectin (Burkholderia cenocepacia (strain ATCC BAA-245 / DSM 16553 / LMG 16656/ NCTC 13227 / J2315 / CF5610) (Burkholderia cepacia (strain J2315)), UniProt B4EH87)
Test: Binding affinity to Burkholderia cenocepacia J2315 BC2L-A expressed in Escherichia coli BL21 (DE3) cells

Row | SMILES | IC50
23 | C[C@H](O)[C@@H](O)[C@@H](O)[C@H](O)C=O [L-FUCOSE] | 2300 µM

Biological target: T2, Lectin (Burkholderia cenocepacia (strain ATCC BAA-245 / DSM 16553 / LMG 16656/ NCTC 13227 / J2315 / CF5610) (Burkholderia cepacia (strain J2315)), UniProt B4EH87)
Test: Displacement of N-(fluorescein-5-yl)-N'-(alpha-D-mannopyranosyloxyethyl)-thiocarbamide from Burkholderia cenocepacia J2315 BC2L-A expressed in Escherichia coli BL21 (DE3) cells incubated for 3 to 4 hrs by fluorescence polarization assay

Row | SMILES | IC50
24 | C[C@H](O)[C@@H](O)[C@@H](O)[C@H](O)C=O [L-FUCOSE] | 498 µM
25 | C=CCO[C@H]1O[C@H](CO)[C@@H](O)[C@H](O)[C@@H]1O | 13.6 µM
26 | CO[C@H]1O[C@H]([C@@H](O)CNC(=O)c2ccccc2)[C@@H](O)[C@H](O)[C@@H]1O | 104 µM
27 | CO[C@H]1O[C@H]([C@@H](O)CNS(=O)(=O)c2ccc(C)cc2)[C@@H](O)[C@H](O)[C@@H]1O | 19.1 µM
28 | Cc1cc(=O)oc2cc(O[C@H]3O[C@H](CO)[C@@H](O)[C@H](O)[C@@H]3O)ccc12 | 14.5 µM
29 | OC[C@H]1OC[C@@H](O)[C@@H](O)[C@@H]1O | 2.9 µM
30 | CO[C@H]1O[C@H]([C@@H](O)CNS(=O)(=O)c2c(C)cc(C)cc2C)[C@@H](O)[C@H](O)[C@@H]1O | 13.8 µM
31 | C[C@@H]1O[C@H](CO)[C@@H](O)[C@H](O)[C@@H]1O | 13 µM
32 | Cc1cc(=O)oc2cc(O[C@@H]3O[C@H](CO)[C@@H](O)[C@H](O)[C@@H]3O)ccc12 | 7.4 µM
33 | CO[C@H]1O[C@H]([C@@H](O)CNC(C)=O)[C@@H](O)[C@H](O)[C@@H]1O | 116 µM
34 | CO[C@H]1O[C@H]([C@@H](O)CNC(=O)/C=C/c2ccccc2)[C@@H](O)[C@H](O)[C@@H]1O | 64 µM
35 | CO[C@H]1O[C@H](CO)[C@@H](O)[C@H](O)[C@@H]1O | 7 µM
